Consider 2 molecules from ChEMBL document CHEMBL1146426, “Isolation and characterization of new anti-HIV and cytotoxic leads from plants, marine, and microbial organisms” (J Nat Prod, 1997).

The subject of experiment [1] is Human immunodeficiency virus 1. Kind of experiment: Antiviral activity against HIV1 infected in human CEM-SS cells assessed as inhibition of virus-induced cytopathic effect after 6 days by XTT-based assay. It counts as functional, organism-based. The note with it: Human immunodeficiency virus 1, CEM-SS, 144 h.
For another experiment, the system named is CEM-SS. Put plainly: Cytotoxicity against human CEM-SS cells after 6 days by XTT-based assay. It counts as cell-based. The note with it: 144 h.
Experiment [2] deals with Human immunodeficiency virus 1. Kind of experiment: Antiviral activity against HIV1 infected in human CEM-SS cells assessed as protection against viral infection after 6 days by XTT-based assay relative to control. It counts as functional. For orientation: Tetrazolium dyes change colour on reduction, which living cells bring about.

Values after ≈ are worked out from the molar mass of the structure shown.

One may read the EC50 as the concentration needed to bring the measured effect to its halfway point. In general, IC50 refers to the point on the concentration scale where inhibition reaches its midpoint. Higher therefore signals weaker potency in that assay. As for `COc1ccc2c(c1CC=C(C)C)O[C@H]1c3ccc(O)cc3OC[C@@H]21` [SANDWICENSIN], the EC50 in experiment [1] came to 2 µg/mL (≈ 5.91 µM). In the experiment on CEM-SS, this molecule registered an IC50 of 7 µg/mL (≈ 20.7 µM). The Activity in experiment [2] was 50%.
For the molecule `COc1cc2c(cc1CC=C(C)C)[C@@H]1Oc3cc(O)ccc3[C@@H]1CO2`, in experiment [1], the EC50 worked out at 0.2 µg/mL (≈ 0.591 µM). Further, the half-inhibitory concentration (IC50) in the experiment on CEM-SS was determined as 3 µg/mL (≈ 8.87 µM). For the same molecule, the Activity in experiment [2] worked out at 80%.
